Experimental findings from patent US20120093947A1, “METHOD OF TREATING REACTIVE AIRWAY DISEASE” (UNITED STATES DEPARTMENT OF VETERANS AFFAIRS, priority 2009, published 2012) are described below.

Like-named read-outs stand apart in the source and are kept apart here.

One test addresses T1, LPO (Bos taurus, UniProt P80025).
T1 construct: Lactoperoxidase (LPO) from bovine milk (EC 1.11.1.7); purchased Sigma-Aldrich Co. (St. Louis, Mo.); host or cells: bovine milk (natural source)
As to the kind of experiment: EPR of MNP adducts with radicals from β2-agonists generated by LPO/H2O2. The format is biochemical, bovine. To be noted: pH 8.0. On the procedure:
(§1) Formation of free radicals from β2-agonists is studied in samples prepared in 100 mM phosphate buffer (pH 7.0 and 8.0)/DTPA (0.2 mM) (total volume 250 μL) containing MNP, MPO (or LPO) and the agonists. The reaction is initiated by the addition of H2O2 as the last component. In experiments in which H2O2 was generated using glucose (1 mM) and glucose oxidase (3.9 μg/mL), glucose oxidase is added as a last component. The sample is transferred to a flat aqueous EPR cell and recording is started 1 minute after initiation of the reaction. Typically, spectra of MNP adducts are recorded using microwave power 20 mW, modulation amplitude 0.1 mT, receiver gain 2×10^5, conversion time 40.96 ms, time constant 81.92 ms, and scan rate of 10 mT/41.92 s. EPR spectra constitute an average of 5 scans and represent results of typical experiments. Unless stated otherwise, direct EPR measurements (spin traps omitted) of free radicals derived from β2-agonists are performed using conditions similar to those for the detection of MNP adducts. EPR spectra are simulated using WINSIM software developed at NIEHS/NIH (RTP, NC).
(§2) The effect of methimazole and dapsone on the formation of free radicals from drugs is studied in phosphate buffers (pH 7.0 and 8.0) containing DTPA (0.2 mM) and MNP (10 mM in dimers). Oxidation is carried out by MPO (0.43 units/mL)/H2O2 (37 μM) and LPO (0.39 μM)/glucose (1 mM)/glucose oxidase (0.8 μg/mL). […]
(§3) Table 3, below, summarizes the effects of dapsone and methimazole on EPR spectra of MNP adducts with radicals from fenoterol and terbutaline generated by MPO/H2O2 and LPO/H2O2 systems at a pH of 8.0. Concentrations of MNP spin adducts were calculated as second integrals of the low-field component of the respective spectra and are expressed as % of control samples (no additives). Results equal the means±SE of at least two measurements.
(§4) . […] This is consistent with the known inhibitory action of both methimazole and dapsone on LPO activity and only methimazole on MPO activity. Thomas et al. (1994) J. Dent. Res. 73(2):544-55. Results obtained at pH 7.0 qualitatively agree with those at pH 8.0.

The target of test [1] is T2, MPO (Homo sapiens, UniProt P05164). Kind of test: EPR of MNP adducts with radicals from β2-agonists generated by MPO/H2O2. The format is biochemical. Also noted: Myeloperoxidase (MPO) from human leucocytes (lyophilized powder); purchased Axxora, LLC (San Diego, Calif.); host or cells: human leucocytes (natural source). The procedure: as §1, §2, §3, §4
T2 sequence (P05164 279-745 limits assumed): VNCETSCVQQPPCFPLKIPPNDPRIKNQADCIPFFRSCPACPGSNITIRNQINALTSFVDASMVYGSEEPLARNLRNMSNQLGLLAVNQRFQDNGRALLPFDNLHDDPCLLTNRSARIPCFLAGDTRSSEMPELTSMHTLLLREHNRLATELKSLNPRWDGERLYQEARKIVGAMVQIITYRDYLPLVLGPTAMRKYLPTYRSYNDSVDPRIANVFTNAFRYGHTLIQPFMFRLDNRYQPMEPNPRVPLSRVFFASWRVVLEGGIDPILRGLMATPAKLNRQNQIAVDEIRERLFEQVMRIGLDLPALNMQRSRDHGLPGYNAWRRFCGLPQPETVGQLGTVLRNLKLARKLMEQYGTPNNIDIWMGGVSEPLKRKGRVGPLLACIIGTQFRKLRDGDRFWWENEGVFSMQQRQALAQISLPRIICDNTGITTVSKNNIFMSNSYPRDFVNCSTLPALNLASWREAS
T2 sequence (P05164 165-273 limits assumed): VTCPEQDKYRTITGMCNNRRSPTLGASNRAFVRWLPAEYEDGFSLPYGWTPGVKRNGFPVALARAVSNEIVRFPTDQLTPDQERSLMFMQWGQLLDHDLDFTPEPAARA
The target in test [2] is T2, MPO. Kind of test: Nitration of salbutamol by MPO/H2O2/NO2−, A410. Also noted: Myeloperoxidase (MPO) from human leucocytes (lyophilized powder); purchased Axxora, LLC (San Diego, Calif.); host or cells: human leucocytes (natural source). Type of test: biochemical. To be noted: 50 μM salbutamol; for Nitrophenols, (%) MPO: 5.0 mM NaNO2, 5 mM H2O2, 0.2 U/mL MPO, pH 7.0, 30 min, ΔA410 versus control. The procedure:
Spectrophotometric Measurements. Spectra are measured using an Agilent diode array spectrophotometer model 8453 (Agilent Technologies, Inc., Santa Clara, Calif.). Nitration of salbutamol is studied by measuring absorption spectra at designated time points following the start of the reaction. Samples are prepared in 100 mM phosphate buffers (pH 7.0). All buffers contained DTPA (100 μM) or are pretreated with Chelex-100 before use, and measurements are performed at ambient temperature of 20° C. Typically, the reaction is started by the addition of a small aliquot of H2O2 or the desired peroxidase. Time course measurements are carried out following changes in absorbance at 410 nm in 30 second intervals versus absorbance at 800 nm, where none of the compounds absorb.
We also examine the effect of methimazole on nitration catalyzed by MPO and EPO. 50 μM of salbutamol is reacted with 0.2 U/mL MPO, 5 mM NaNO2, and 2.1 mM H2O2 at pH buffer 7.0 in the presence of 0, 25, 50, and 100 μM methimazole (shown in FIG. 9, section B, traces a-d, respectively). In contrast to inhibition of nitration by LPO system, which was irreversible, inhibitory action of methimazole on MPO/H2O2/NO2^− is transitory.
The extent of nitration is expressed as a change in ΔA410 versus control (dapsone omitted) taken as 100% after 10, 30, and 60 minute reactions for LPO, MPO, and EPO nitrating systems, respectively. Results equal the means±SE of at least two measurements. In the LPO system, 100 μM of salbutamol, 3.4 mM of NaNO2, 4 mM of H2O2, and 65 nM of LPO is used. In the MPO system, 50 μM of salbutamol, 5.0 mM of NaNO2, 5 mM of H2O2, and 0.2 U/mL of MPO is used. In the EPO system, 50 μM of salbutamol, 5 mM of NaNO2, 2 mM of H2O2, and 0.075 U/mL of EPO is used. All reactions were carried out in pH 7.0 phosphate buffer containing DMSO (5% v/v). The term “nitrophenols” includes nitrosalbutamol (N-Sal) and salbutamol-derived nitrophenol (N—ArOH).

As to `Nc1ccc(S(=O)(=O)c2ccc(N)cc2)cc1` [Dapsone, diamino-diphenyl sulfone], at LPO (fenoterol 0.047 mM, inhibitor 1 mM, reagent H2O2 37 μM), the “Concentration of MNP spin adducts, Fenoterol, +LPO + H2O2, % of control” value is reported as “markedly inhibit”. In addition, the remaining activity at 1000 µM at LPO (fenoterol 0.047 mM, inhibitor 1 mM, reagent H2O2 37 μM, read-out: Concentration of MNP spin adducts, Fenoterol, +LPO + H2O2, % of control) was 13.9 ± 0.6%; at LPO (terbutaline 0.047 mM, inhibitor 1 mM, reagent H2O2 37 μM, read-out: Concentration of MNP spin adducts, Terbutaline, +LPO + H2O2, % of control) it was 54.6 ± 20%. Moreover, the “Concentration of MNP spin adducts, Terbutaline, +LPO + H2O2, % of control” value on LPO (terbutaline 0.047 mM, inhibitor 1 mM, reagent H2O2 37 μM) is “markedly inhibit”. At MPO [1] (inhibitor 1 mM, MPO/H2O2), the “Effect on MPO activity (formation of radicals from fenoterol and terbutaline, MPO system)” value is listed as “only a minimal effect”. The figures for the “Nitrophenols, (%) MPO” value at MPO [2] (dapsone 100 μM), on MPO [2] (dapsone 250 μM) and at MPO [2] (dapsone 500 μM) were 66.3 ± 0.6%, 56.0 ± 1.3% and 44.2 ± 3.0%, respectively.
Regarding `Cn1cc[nH]c1=S` [Methimazole, 1-methyl-3H-imidazole-2-thione], at LPO (fenoterol 0.47 mM, inhibitor 0.86 mM, H2O2 from glucose 1 mM/glucose oxidase 0.8 μg/mL), the “Concentration of MNP spin adducts, Fenoterol, +LPO + H2O2, % of control” value is given as “markedly inhibit”. The remaining activity at 860 µM was 26.9 ± 8.2% at LPO (fenoterol 0.47 mM, inhibitor 0.86 mM, H2O2 from glucose 1 mM/glucose oxidase 0.8 μg/mL, read-out: Concentration of MNP spin adducts, Fenoterol, +LPO + H2O2, % of control); 33.9% on LPO (terbutaline 0.47 mM, inhibitor 0.86 mM, H2O2 from glucose 1 mM/glucose oxidase 0.8 μg/mL, read-out: Concentration of MNP spin adducts, Terbutaline, +LPO + H2O2, % of control); 22.4 ± 0.6% on MPO [1] (fenoterol 0.47 mM, inhibitor 0.86 mM, reagent H2O2 37 μM, pH 8.0, read-out: Concentration of MNP spin adducts, Fenoterol, +MPO + H2O2, % of control); 33.5 ± 3.5% on MPO [1] (terbutaline 0.47 mM, inhibitor 0.86 mM, reagent H2O2 37 μM, pH 8.0, read-out: Concentration of MNP spin adducts, Terbutaline, +MPO + H2O2, % of control). Moreover, the “Concentration of MNP spin adducts, Terbutaline, +LPO + H2O2, % of control” value at LPO (terbutaline 0.47 mM, inhibitor 0.86 mM, H2O2 from glucose 1 mM/glucose oxidase 0.8 μg/mL) is reported as “markedly inhibit”. Also, on MPO [1] (fenoterol 0.47 mM, inhibitor 0.86 mM, reagent H2O2 37 μM, pH 8.0), the “Concentration of MNP spin adducts, Fenoterol, +MPO + H2O2, % of control” value is “inhibitory”. For the same molecule, the “Concentration of MNP spin adducts, Terbutaline, +MPO + H2O2, % of control” value at MPO [1] (terbutaline 0.47 mM, inhibitor 0.86 mM, reagent H2O2 37 μM, pH 8.0) was “inhibitory”. The “Inhibitory action on nitration of salbutamol by MPO/H2O2/NO2−” value on MPO [2] (methimazole 25, 50, 100 μM, 0.2 U/mL MPO, 5 mM NaNO2, 2.1 mM H2O2, pH 7.0) is on record as “transitory”.
